From article PMC10269775, “Penicillin-Binding Protein Occupancy Dataset for 18 β-Lactams and 4 β-Lactamase Inhibitors in Neisseria gonorrhoeae” (Microbiology Spectrum, 2023)
In brackets after ≈: the same amount, converted by molar mass.

These compounds were tested against T1, PBP1 (Neisseria gonorrhoeae, UniProt O05131) (assay: PBP-binding assay (Bocillin FL) in isolated membrane preparations). Details: strain ATCC 19424; membrane preparation, 30 min drug then Bocillin FL; read-out: IC50 PBP1 (converted).
T1 construct: endogenous in cells; host or cells: N. gonorrhoeae ATCC 19424, isolated membrane preparation
Description: (§1) Bacterial membranes were collected by ultracentrifugation.
C=CC1=C(C(=O)O)N2C(=O)[C@@H](NC(=O)/C(=N\OCC(=O)O)c3csc(N)n3)[C@H]2SC1 [CFM, cefixime] gave an IC50 of 2030 nM.
Work on CCO/N=C(\C(=O)N[C@@H]1C(=O)N2C(C(=O)[O-])=C(Sc3nc(-c4cc[n+](C)cc4)cs3)CS[C@H]12)c1nsc(N)n1 [CPT, ceftaroline] yielded an IC50 of over 3310 nM.

What follows are compounds tested against T2, PBP2 (Neisseria gonorrhoeae, UniProt P08149, H541N) in the same assay as above. Details: IC50 PBP2, strain ATCC 19424; membrane preparation, 30 min drug then Bocillin FL.
T2 construct: endogenous in cells; host or cells: N. gonorrhoeae ATCC 19424, isolated membrane preparation
Parameters: species or system Neisseria gonorrhoeae ATCC 19424
In the case of C=CC1=C(C(=O)O)N2C(=O)[C@@H](NC(=O)/C(=N\OCC(=O)O)c3csc(N)n3)[C@H]2SC1 [CFM, cefixime], the IC50 is reported as 22.1 nM.
CCO/N=C(\C(=O)N[C@@H]1C(=O)N2C(C(=O)[O-])=C(Sc3nc(-c4cc[n+](C)cc4)cs3)CS[C@H]12)c1nsc(N)n1 [CPT, ceftaroline] was tested, and the IC50 was 248 nM.

The compounds below were run against T3, PBP1 (Neisseria gonorrhoeae, UniProt O05131, A375T/F666S) in the same assay as above. Details: IC50 PBP1, strain ATCC 49226; membrane preparation, 30 min drug then Bocillin FL.
T3 construct: endogenous in cells; host or cells: N. gonorrhoeae ATCC 49226, isolated membrane preparation
Parameters: species or system Neisseria gonorrhoeae ATCC 49226
Description: as §1
In the case of C=CC1=C(C(=O)O)N2C(=O)[C@@H](NC(=O)/C(=N\OCC(=O)O)c3csc(N)n3)[C@H]2SC1 [CFM, cefixime], the IC50 is reported as over 4410 nM.
In the case of CCO/N=C(\C(=O)N[C@@H]1C(=O)N2C(C(=O)[O-])=C(Sc3nc(-c4cc[n+](C)cc4)cs3)CS[C@H]12)c1nsc(N)n1 [CPT, ceftaroline], the IC50 is reported as over 3310 nM.

These compounds were tested against T4, PBP2 (Neisseria gonorrhoeae, UniProt P08149, A510V/A516G/A574V/F504L/H541N/I556V/I566V/K555Q/P552V) (assay: biochemical). Details: IC50 PBP2, strain ATCC 49226; membrane preparation, 30 min drug then Bocillin FL.
T4 construct: endogenous in cells; host or cells: N. gonorrhoeae ATCC 49226, isolated membrane preparation
Type: binding, Neisseria gonorrhoeae ATCC 49226
For C=CC1=C(C(=O)O)N2C(=O)[C@@H](NC(=O)/C(=N\OCC(=O)O)c3csc(N)n3)[C@H]2SC1 [CFM, cefixime], the IC50 was 44.1 nM.
CCO/N=C(\C(=O)N[C@@H]1C(=O)N2C(C(=O)[O-])=C(Sc3nc(-c4cc[n+](C)cc4)cs3)CS[C@H]12)c1nsc(N)n1 [CPT, ceftaroline] gave an IC50 of 347 nM.

Each compound was assayed on N. gonorrhoeae ATCC 19424 (assay: MIC, CLSI broth microdilution). Details: Neisseria gonorrhoeae, ATCC19424; strain ATCC 19424; read-out: MIC.
Type: cell-based
C=CC1=C(C(=O)O)N2C(=O)[C@@H](NC(=O)/C(=N\OCC(=O)O)c3csc(N)n3)[C@H]2SC1 [CFM, cefixime] showed an MIC of 0.004 µg/mL (≈ 0.00882 µM).
Compound CCO/N=C(\C(=O)N[C@@H]1C(=O)N2C(C(=O)[O-])=C(Sc3nc(-c4cc[n+](C)cc4)cs3)CS[C@H]12)c1nsc(N)n1 [CPT, ceftaroline] has an MIC of 0.032 µg/mL (≈ 0.0529 µM).

Same assay, conditions: Neisseria gonorrhoeae, ATCC19424; strain ATCC 19424; read-out: MIC (Table S1)
For C=CC1=C(C(=O)O)N2C(=O)[C@@H](NC(=O)/C(=N\OCC(=O)O)c3csc(N)n3)[C@H]2SC1 [CFM, cefixime], the MIC was 0.004 µg/mL (≈ 0.00882 µM).
With CCO/N=C(\C(=O)N[C@@H]1C(=O)N2C(C(=O)[O-])=C(Sc3nc(-c4cc[n+](C)cc4)cs3)CS[C@H]12)c1nsc(N)n1 [CPT, ceftaroline] the MIC was 0.032 µg/mL (≈ 0.0529 µM).

These compounds were tested on N. gonorrhoeae ATCC 49226 (assay: MIC, CLSI broth microdilution). Details: ATCC 49226 versus ATCC 19424.
Type: cell-based, Neisseria gonorrhoeae
C=CC1=C(C(=O)O)N2C(=O)[C@@H](NC(=O)/C(=N\OCC(=O)O)c3csc(N)n3)[C@H]2SC1 [CFM, cefixime] was tested, and the “MIC increase for strain ATCC 49226” value was 4 fold.
With CCO/N=C(\C(=O)N[C@@H]1C(=O)N2C(C(=O)[O-])=C(Sc3nc(-c4cc[n+](C)cc4)cs3)CS[C@H]12)c1nsc(N)n1 [CPT, ceftaroline] the “MIC increase for strain ATCC 49226” value was 16 fold.

Same assay, conditions: Neisseria gonorrhoeae, ATCC49226; strain ATCC 49226; read-out: MIC
Compound C=CC1=C(C(=O)O)N2C(=O)[C@@H](NC(=O)/C(=N\OCC(=O)O)c3csc(N)n3)[C@H]2SC1 [CFM, cefixime] has an MIC of 0.016 µg/mL (≈ 0.0353 µM).
CCO/N=C(\C(=O)N[C@@H]1C(=O)N2C(C(=O)[O-])=C(Sc3nc(-c4cc[n+](C)cc4)cs3)CS[C@H]12)c1nsc(N)n1 [CPT, ceftaroline] was tested, and the MIC was 0.5 µg/mL (≈ 0.827 µM).

Same assay, conditions: Neisseria gonorrhoeae, ATCC49226; strain ATCC 49226; read-out: MIC (Table S1)
Work on C=CC1=C(C(=O)O)N2C(=O)[C@@H](NC(=O)/C(=N\OCC(=O)O)c3csc(N)n3)[C@H]2SC1 [CFM, cefixime] yielded an MIC of 0.016 µg/mL (≈ 0.0353 µM).
CCO/N=C(\C(=O)N[C@@H]1C(=O)N2C(C(=O)[O-])=C(Sc3nc(-c4cc[n+](C)cc4)cs3)CS[C@H]12)c1nsc(N)n1 [CPT, ceftaroline] showed an MIC of 0.5 µg/mL (≈ 0.827 µM).

What follows are compounds tested against PBP1, PBP2 and PBP3 (Neisseria gonorrhoeae, UniProt P08149, H541N) (assay: not given). Details: read-out: min. IC50 (minimum observed IC50 value); strain ATCC 19424.
Type: binding, Neisseria gonorrhoeae ATCC 19424
Work on C=CC1=C(C(=O)O)N2C(=O)[C@@H](NC(=O)/C(=N\OCC(=O)O)c3csc(N)n3)[C@H]2SC1 [CFM, cefixime] yielded an IC50 of 22.1 nM.
CCO/N=C(\C(=O)N[C@@H]1C(=O)N2C(C(=O)[O-])=C(Sc3nc(-c4cc[n+](C)cc4)cs3)CS[C@H]12)c1nsc(N)n1 [CPT, ceftaroline] gave an IC50 of 248 nM.

These compounds were tested against PBP1, PBP2 and PBP3 (Neisseria gonorrhoeae, UniProt P08149, A510V/A516G/A574V/F504L/H541N/I556V/I566V/K555Q/P552V) (assay: not given). Details: read-out: min. IC50 (minimum observed IC50 value); strain ATCC 49226.
Type: binding, Neisseria gonorrhoeae ATCC 49226
Compound C=CC1=C(C(=O)O)N2C(=O)[C@@H](NC(=O)/C(=N\OCC(=O)O)c3csc(N)n3)[C@H]2SC1 [CFM, cefixime] has an IC50 of 44.1 nM.
CCO/N=C(\C(=O)N[C@@H]1C(=O)N2C(C(=O)[O-])=C(Sc3nc(-c4cc[n+](C)cc4)cs3)CS[C@H]12)c1nsc(N)n1 [CPT, ceftaroline] showed an IC50 of 347 nM.

The compounds below were run against T5, PBP3 (Neisseria gonorrhoeae, UniProt Q5FAB9) (assay: not given). Details: read-out: IC50 PBP3; strain ATCC 19424; membrane preparation, 30 min drug then Bocillin FL.
T5 sequence (Q5FAB9 22-469): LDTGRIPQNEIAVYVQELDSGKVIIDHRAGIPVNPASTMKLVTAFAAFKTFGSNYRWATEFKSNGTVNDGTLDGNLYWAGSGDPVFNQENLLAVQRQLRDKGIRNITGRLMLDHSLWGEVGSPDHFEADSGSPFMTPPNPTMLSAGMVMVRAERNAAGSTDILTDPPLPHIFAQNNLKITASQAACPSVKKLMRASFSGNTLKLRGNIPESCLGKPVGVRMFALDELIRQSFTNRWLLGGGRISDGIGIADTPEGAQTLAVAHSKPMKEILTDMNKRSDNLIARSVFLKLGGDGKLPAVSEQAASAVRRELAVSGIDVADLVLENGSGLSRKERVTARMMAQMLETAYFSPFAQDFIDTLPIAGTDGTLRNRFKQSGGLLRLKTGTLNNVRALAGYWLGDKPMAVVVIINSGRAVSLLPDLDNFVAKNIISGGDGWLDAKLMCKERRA
Compound C=CC1=C(C(=O)O)N2C(=O)[C@@H](NC(=O)/C(=N\OCC(=O)O)c3csc(N)n3)[C@H]2SC1 [CFM, cefixime] has an IC50 of over 4410 nM.
CCO/N=C(\C(=O)N[C@@H]1C(=O)N2C(C(=O)[O-])=C(Sc3nc(-c4cc[n+](C)cc4)cs3)CS[C@H]12)c1nsc(N)n1 [CPT, ceftaroline] showed an IC50 of 3140 nM.

The compounds below were run against T5, PBP3 (assay: not given). Details: read-out: IC50 PBP3; strain ATCC 49226; membrane preparation, 30 min drug then Bocillin FL.
C=CC1=C(C(=O)O)N2C(=O)[C@@H](NC(=O)/C(=N\OCC(=O)O)c3csc(N)n3)[C@H]2SC1 [CFM, cefixime] gave an IC50 of over 4410 nM.
Work on CCO/N=C(\C(=O)N[C@@H]1C(=O)N2C(C(=O)[O-])=C(Sc3nc(-c4cc[n+](C)cc4)cs3)CS[C@H]12)c1nsc(N)n1 [CPT, ceftaroline] yielded an IC50 of 2130 nM.

Each compound was assayed against PBP2 (Neisseria gonorrhoeae, UniProt P08149) (assay: not given). Details: read-out: IC50 for PBP2; across both strains ATCC 19424 and ATCC 49226.
Compound C=CC1=C(C(=O)O)N2C(=O)[C@@H](NC(=O)/C(=N\OCC(=O)O)c3csc(N)n3)[C@H]2SC1 [CFM, cefixime] has an IC50 of 22.1 nM.
